These results are taken from patent US8741807B2 (priority 2011, dated 2014).

Read-outs that look alike come from different tables or passages of the source.

The test system of this assay is rice blast fungus (Kyu89-246, MAFF101506, race 003.0). The class given is in vivo. The settings on record: inoculated next day, 6 days after inoculation, five-leaf stage.

For the compound `NCCCCNCCCNC(=O)CCCCCCCCCCCO` [YIS12OH1N, 1-N-(12-hydroroxylauroyl)-spermidine], the “resistance to rice blast (number of lesions)” value by setting is: (sprayed at 1 mM) “provided the resistance”; (sprayed at 5 mM) “showed resistance to rice blast”.

Turning to `NCCCCN(CCCN)C(=O)CCCCCCCCCCCO` [YIS12OH4N, ^4N-(12-hydroroxylauroyl)-spermidine], the “resistance to rice blast (number of lesions)” value (sprayed at 5 mM) is recorded as “showed resistance to rice blast”.
